Source: publication PMC4299541 (Cardiovascular Diabetology, 2015)

Key:
[1] = test system: Control-aptamer (DNA, single strand, phosphorothioate linkages (positions as in ref 24)) TTCGGCCTGGGGGCGGCCAGTTCGGGTCCAGTCGCGGGAG; test: quartz crystal microbalance (27 MHz); settings: immobilised compound; highest concentration not stated
[2] = test system: GLAP-aptamer (DNA, aptamer, phosphorothioate linkage at each three bases (exact positions drawn in Figure 1C)) GCGGGTTGGGAGCCACTAGTAGCAACGTGCGACCCTCTACGAAGCAAACCATCCTCA; test: quartz crystal microbalance (27 MHz), curve fitting; settings: immobilised compound; not affected by 2% fetal bovine serum
[3] = test system: AGE-aptamer (DNA, aptamer, phosphorothioate linkages (positions drawn in Figure 3A)) TGTAGCCCGAGTATCATTCTCCATCGCCCCCAGATACAAG; test: as above; settings: aptamer immobilised, GLAP added; not affected by 2% fetal bovine serum
[4] = target: T1, RAGE (receptor for AGEs), vRAGE (Homo sapiens, UniProt Q15109); test: 27-MHz quartz crystal microbalance, vRAGE immobilized; type: binding
T1 construct: gene AGER
T1 sequence (Q15109 23-116 limits assumed): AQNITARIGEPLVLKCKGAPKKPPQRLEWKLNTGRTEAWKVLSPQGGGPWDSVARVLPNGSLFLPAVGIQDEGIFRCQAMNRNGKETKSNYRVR

Compound | binding [1] | KD [2] | KD [3] | Kd [4]
CC(=O)NC(CCCC[n+]1cc(O)cc(CO)c1)C(=O)O (racemic) | no | 2.6 µM | 33 µM | 
GLAP |  |  |  | 59 µM
